A short description of series [1]: Weight and toxicity monitoring in treated infected mice. In kind it is in vivo, BALB/c mice. Particulars: 10^5 infection experiment, daily IP treatment. The protocol:
(§1) The in vivo experiments were comprised of four groups of five mice each: (1) infected, but not treated [control for the infection—100 μL of DMSO per day, drug diluent]; (2) treated with NC884, NC901 or NC2459, but not infected with the parasites [control for drug toxicity]; (3) infected with the parasites and treated with amphotericin B (8 mg/kg/day) [reference drug; positive control]; and (4) infected with the parasites and treated with NC884, NC901 or NC2459 [experimental group]. Luciferase expressing metacyclic promastigotes L. major (Freidlin V1) were obtained as described previously. Suspensions of 1×10^5 or 1×10^6 parasites per 50 μl of sterile DMEM (endotoxin-free) were injected with a 30G needle into the left hind footpad of BALB/c mice. Two weeks post-infection the compounds were administered once a day by intraperitoneal route, daily for 14 to 17 days. Twice a week, weights were recorded to monitor toxicity and the thickness of the infected footpad and the non-infected footpad was measured with digital calipers to monitor the progression of the disease. The parasitic load also was evaluated through in vivo imaging using luminescence (Kodak Image Station). The mice were injected intra-peritoneally with 150 mg/kg D-luciferin (Sigma, USA) 10 min before imaging, anesthetized with 1-2% isofluorane in oxygen during imaging and the net intensity emitted from the footpad was quantified using the KODAK Image Station software. Parasite burden was expressed as net intensity emitted from L. major infected footpad lesions normalized against the background fluorescence of uninfected mice. The presence/absence of parasites was confirmed by PCR using L. major methionine aminopeptidase (MetAP1) 1 specific primers: 5′-[…]-3′ (SEQ ID NO:1) and 5′-[…]-3′ (SEQ ID NO:2) on cDNA reverse transcribed from total RNA extracted from footpad lysate obtained by macerating footpad tissue fragments in Trizol (Invitrogen Life Technologies, United States) with the gentleMACS™ Dissociator (Miltenyi Biotec GmbH, Germany) following the manufacturer's protocol.

The test system of series [2] is L. major metacyclic promastigotes. In words: Murine model for cutaneous leishmaniasis (footpad infection). It counts as in vivo, BALB/c mice. The settings on record: 10^5 L. major metacyclic promastigotes, intraperitoneal daily treatment. The protocol:
as §1

In the case of `C[C@@H]1[C@H](O)[C@@H](C)/C=C/C=C/C=C/C=C/C=C/C=C/C=C/[C@H](O[C@@H]2O[C@H](C)[C@@H](O)[C@H](N)[C@@H]2O)C[C@@H]2O[C@](O)(C[C@@H](O)C[C@@H](O)[C@H](O)CC[C@@H](O)C[C@@H](O)CC(=O)O[C@H]1C)C[C@H](O)[C@H]2C(=O)O` [amphotericin B, reference compound], the weight loss entry in series [1] is “much more dramatic loss in weight”. Moreover, the footpad swelling entry in series [2] is “reduced footpad swelling”.

These data come from US9669016B2, “Antiparasitic effect of Bis[3,5-Bis(Benzylidene)-4-Oxo-1-Piperidinyl]amide Derivatives” (priority 2014, dated 2017).
